Laboratory results from US20090042964A1, “AMINO-5-[SUBSTITUTED-4-(DIFLUOROMETHOXY)PHENYL]-5-PHENYLIMIDAZOLONE COMPOUNDS AS BETA-SECRETASE INHIBITORS” (Wyeth, priority 2007, published 2009).
Like-named read-outs stand apart in the source and are kept apart here.

Tests used:
human BACE1 = human BACE1 (Homo sapiens, UniProt P56817); experiment: Fluorescent kinetic assay, evaluation of BACE1 binding affinity of test compounds; assay type: biochemical; conditions: 10 nM human BACE1, 25 μM substrate WABC-6, pH 4.5, room temperature
human BACE1, sequence (P56817 46-501): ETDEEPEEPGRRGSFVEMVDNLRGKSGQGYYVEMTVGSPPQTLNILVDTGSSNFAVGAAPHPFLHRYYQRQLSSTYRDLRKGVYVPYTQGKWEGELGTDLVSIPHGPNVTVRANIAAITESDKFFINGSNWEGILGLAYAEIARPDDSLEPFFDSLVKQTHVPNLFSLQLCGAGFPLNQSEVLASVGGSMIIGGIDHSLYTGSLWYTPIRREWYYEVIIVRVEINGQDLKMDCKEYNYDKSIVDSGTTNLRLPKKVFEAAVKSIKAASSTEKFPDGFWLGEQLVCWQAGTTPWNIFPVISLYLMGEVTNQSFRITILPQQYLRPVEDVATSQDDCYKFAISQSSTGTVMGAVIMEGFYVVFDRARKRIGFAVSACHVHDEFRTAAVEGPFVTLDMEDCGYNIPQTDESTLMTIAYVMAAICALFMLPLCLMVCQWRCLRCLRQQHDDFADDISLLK
Method in brief: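 Kinetic fluorescence assay: enzyme added last to inhibitor and substrate mix, reading started immediately; substrate at 100 μM working dilution (25 μL in 100 μL total). Buffer 66.7 mM Na-acetate pH 4.5 with 0.0667% CHAPS for inhibitor and enzyme dilutions; enzyme stock quantified at 280 nm.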

| Compound | IC50 (human BACE1; read-out: BACE1 IC50) [µM] | further results |
| --- | --- | --- |
| CN1C(=O)C(c2cccc(Br)c2)(c2ccc(OC(F)F)c(C3CC3)c2)N=C1N (centres unmarked) [Example 164, 2-Amino-5-(3-bromo-phenyl)-5-(3-cyclopropyl-4-difluoromethoxy-phenyl)-3-methyl-3,5-dihydro-imidazol-4-one] | < 0.1 | melting point: 85 to 87 °C |
| CN1C(=O)C(c2ccc(F)c(OCCC(F)F)c2)(c2ccc(OC(F)F)c(C3CC3)c2)N=C1N (centres unmarked) [Example 133, 2-Amino-5-[3-cyclopropyl-4-(difluoromethoxy)phenyl]-5-[3-(3,3-difluoropropoxy)-4-fluorophenyl]-3-methyl-3,5-dihydro-4H-imidazol-4-one] | < 0.1 | – |
| CCc1cc(C2(c3ccc(F)c(C#CCOC)c3)N=C(N)N(C)C2=O)ccc1OC(F)F (centres unmarked) [Example 152, 2-Amino-5-[4-(difluoromethoxy)-3-ethylphenyl]-5-[4-fluoro-3-(3-methoxyprop-1-yn-1-yl)phenyl]-3-methyl-3,5-dihydro-4H-imidazol-4-one] | < 0.1 | – |
| CCc1cc(C2(c3ccc(F)c(C#CCC(C)C)c3)N=C(N)N(C)C2=O)ccc1OC(F)F (centres unmarked) [Example 149, 2-Amino-5-[4-(difluoromethoxy)-3-ethylphenyl]-5-[4-fluoro-3-(4-methylpent-1-yn-1-yl)phenyl]-3-methyl-3,5-dihydro-4H-imidazol-4-one] | 0.11 to 1 | – |
| CCC#Cc1cccc(C2(c3ccc(OC(F)F)c(C4CC4)c3)N=C(N)N(C)C2=O)c1 (centres unmarked) [Example 171, 2-amino-4-(3-(but-1-ynyl)phenyl)-4-(3-cyclopropyl-4-(difluoromethoxy)phenyl)-1-methyl-1H-imidazol-5(4H)-one] | < 0.1 | – |
| COCCc1cc(C2(c3ccccc3)N=C(N)N(C)C2=O)ccc1OC(F)F (centres unmarked) [Example 142, 2-Amino-5-[4-(difluoromethoxy)-3-(2-methoxyethyl)phenyl]-3-methyl-5-phenyl-3,5-dihydro-4H-imidazol-4-one] | < 0.1 | – |
| CN1C(=O)[C@@](c2ccccc2)(c2ccc(OC(F)F)c(CCCl)c2)N=C1N [Example 144, (5R)-2-Amino-5-[3-(2-chloroethyl)-4-(difluoromethoxy)phenyl]-3-methyl-5-phenyl-dihydro-4H-imidazol-4-one] | > 1 | – |
| Cc1cc(C2(c3ccc(OC(F)F)c(C)c3)N=C(N)N(C)C2=O)ccc1F (centres unmarked) [Example 20, 2-Amino-5-[4-(difluoromethoxy)-3-methylphenyl]-5-(4-fluoro-3-methylphenyl)-3-methyl-3,5-dihydro-4H-imidazol-4-one] | – | IC50 (human BACE1; BACE1 IC50 μM): 0.11 to 1 µM |
| Cc1cc([C@@]2(c3ccc(F)c(OCCCF)c3)N=C(N)N(C)C2=O)ccc1OC(F)F [Example 110, (5S)-2-Amino-5-[4-(difluoromethoxy)-3-methylphenyl]-5-[4-fluoro-3-(3-fluoropropoxy)phenyl]-3-methyl-3,5-dihydro-4H-imidazol-4-one] | 0.11 to 1 | – |
| COc1cc(C2(c3ccccc3)N=C(N)N(C)C2=O)ccc1OC(F)F (centres unmarked) [Example 15, 2-Amino-5-[4-(difluoromethoxy)-3-methoxyphenyl]-3-methyl-5-phenyl-3,5-dihydro-4H-imidazol-4-one] | – | IC50 (human BACE1; BACE1 IC50 μM): 0.11 to 1 µM |
| CN1C(=O)C(c2cccc(/C=C/CCF)c2)(c2ccc(OC(F)F)c(Cl)c2)N=C1N (centres unmarked) [Example 68, 2-Amino-5-[3-chloro-4-(difluoromethoxy)phenyl)-5-[3-((E)-4-fluoro-but-1-enyl)phenyl]-3-methyl-3,5-dihydro-4H-imidazol-4-one] | < 0.1 | – |
| CCc1cc(C2(c3ccc(F)c(C#CCF)c3)N=C(N)N(C)C2=O)ccc1OC(F)F (centres unmarked) [Example 159, 2-Amino-5-[4-(difluoromethoxy)-3-ethylphenyl]-5-[4-fluoro-3-(3-fluoroprop-1-yn-1-yl)phenyl]-3-methyl-3,5-dihydro-4H-imidazol-4-one] | < 0.1 | – |
| C=Cc1cc([C@]2(c3ccccc3)N=C(N)N(C)C2=O)ccc1OC(F)F [Example 34, (5S)-2-Amino-5-[4-(difluoromethoxy)-3-vinylphenyl]-3-methyl-5-phenyl-3,5-dihydro-4H-imidazol-4-one] | – | IC50 (human BACE1; BACE1 IC50 μM): > 1 µM |
| CN1C(=O)[C@@](c2ccccc2)(c2ccc(OC(F)F)c(CCF)c2)N=C1N (single isomer, unassigned) [Example 76] | > 1 | – |
| CCCOc1cc(C2(c3ccc(OC(F)F)c(Cl)c3)N=C(N)N(C)C2=O)ccc1F (centres unmarked) [Example 97, 2-Amino-5-[3-chloro-4-(difluoromethoxy)phenyl]-5-(4-fluoro-3-propoxyphenyl)-3-methyl-3,5-dihydro-4H-imidazol-4-one] | < 0.1 | – |
| CN1C(=O)C(c2ccc(F)c(OCCCF)c2)(c2ccc(OC(F)F)c(C3CC3)c2)N=C1N (centres unmarked) [Example 85, 2-amino-5-[3-cyclopropyl-4-(difluoromethoxy)phenyl]-5-[4-fluoro-3-(3-fluoropropoxy)phenyl]-3-methyl-3,5-dihydro-4H-imidazol-4-one] | < 0.1 | – |
| Cc1cccc(C2(c3ccc(OC(F)F)c(C)c3)N=C(N)N(C)C2=O)c1 (centres unmarked) [Example 77, 2-amino-5-[4-(difluoromethoxy)-3-methylphenyl]-3-methyl-5-(3-methylphenyl)-3,5-dihydro-4H-imidazol-4-one] | 0.11 to 1 | – |
| CCCOc1cc(C2(c3ccc(OC(F)F)c(C)c3)N=C(N)N(C)C2=O)ccc1F (centres unmarked) [Example 114, 2-Amino-5-[4-(difluoromethoxy)-3-methylphenyl]-5-(4-fluoro-3-propoxyphenyl)-3-methyl-3,5-dihydro-4H-imidazol-4-one] | < 0.1 | – |
| COCC/C=C/c1cccc(C2(c3ccc(OC(F)F)c(C)c3)N=C(N)N(C)C2=O)c1 (centres unmarked) [Example 64, 2-Amino-5-[4-(difluoromethoxy)-3-methylphenyl]-5-[3-((E)-4-methoxybut-1-enyl)phenyl]-3-methyl-3,5-dihydro-4H-imidazol-4-one] | < 0.1 | – |
| 2-Amino-5-[3-chloro-4-(difluoromethoxy)phenyl]-3-methyl-5-phenyl-3,5-dihydro-4H-imidazol-4-one [Example 16] | 0.11 to 1 | – |
| COCC#Cc1cccc([C@]2(c3ccc(OC(F)F)c(C)c3)N=C(N)N(C)C2=O)c1 [Example 70, (5R)-2-Amino-4-(4-(difluoromethoxy)-3-methylphenyl)-4-(3-(3-methoxyprop-1-ynyl)phenyl)-1-methyl-1H-imidazol-5(4H)-one] | 0.11 to 1 | – |
| CCCC#Cc1cccc([C@@]2(c3ccc(OC(F)F)c(C)c3)N=C(N)N(C)C2=O)c1 [Example 78, (5S)-2-amino-5-[4-(difluoromethoxy)-3-methylphenyl]-3-methyl-5-(3-pent-1-yn-1-ylphenyl)-3,5-dihydro-4H-imidazol-4-one] | < 0.1 | – |
| CN1C(=O)[C@](c2ccccc2)(c2ccc(OC(F)F)c(Cl)c2)N=C1N [Example 27, (5S)-2-Amino-5-[3-chloro-4-(difluoromethoxy)phenyl]-1-methyl-5-phenyl-3,5-dihydro-4H-imidazol-4-one] | – | IC50 (human BACE1; BACE1 IC50 μM): 0.11 to 1 µM |
| Cc1cc(C2(c3cccc(/C=C/CCF)c3)N=C(N)N(C)C2=O)ccc1OC(F)F (centres unmarked) [Example 63, 2-Amino-5-[4-(difluoromethoxy)-3-methylphenyl]-5-[3-((E)-4-fluorobut-1-enyl)phenyl]-3-methyl-3,5-dihydro-4H-imidazol-4-one] | < 0.1 | – |
| CCc1cc(C2(c3ccc(F)c(OCCC(F)F)c3)N=C(N)N(C)C2=O)ccc1OC(F)F (centres unmarked) [Example 134, 2-Amino-5-[4-(difluoromethoxy)-3-ethylphenyl]-5-[3-(3,3-difluoropropoxy)-4-fluorophenyl]-3-methyl-3,5-dihydro-4H-imidazol-4-one] | < 0.1 | – |
